Key:
HLA-A*24:02 = HLA-A*24:02 (Homo sapiens, UniProt P04439, D101N/D140Y/D185E/E176V/E190D/F33S/G103R/G107R/I119L/I121M/I306V/K335N/L105A/L180Q/L300P/N151K/N90K/Q86E/Q94H/R106L/R138H/R89G/T104I/T345S/V100E/W191G/Y123F); assay: MHC binding assay, UV-ligand exchange with β2m ELISA, HLA-A*24:02; conditions: peptide exchange yield
Excerpt: Candidate peptides for T cell based therapies according to the present invention were further tested for their MHC binding capacity (affinity). The individual peptide-MHC complexes were produced by UV-ligand exchange, where a UV-sensitive peptide is cleaved upon UV-irradiation, and exchanged with the peptide of interest as analyzed. Only peptide candidates that can effectively bind and stabilize the peptide-receptive MHC molecules prevent dissociation of the MHC complexes. To determine the yield of the exchange reaction, an ELISA was performed based on the detection of the light chain (β2m) of stabilized MHC complexes. The assay was performed as generally described in Rodenko et al. (Rodenko et al., 2006).
96 well MAXISorp plates (NUNC) were coated over night with 2 ug/ml streptavidin in PBS at room temperature, washed 4× and blocked for 1 h at 37° C. in 2% BSA containing blocking buffer. Refolded HLA-A*02:01/MLA-001 monomers served as standards, covering the range of 15-500 ng/ml. Peptide-MHC monomers of the UV-exchange reaction were diluted 100-fold in blocking buffer. Samples were incubated for 1 h at 37° C., washed four times, incubated with 2 ug/ml HRP conjugated anti-β2m for 1 h at 37° C., washed again and detected with TMB solution that is stopped with […]. Absorption was measured at 450 nm. Candidate peptides that show a high exchange yield (preferably higher than 50%, most preferred higher than 75%) are generally preferred for a generation and production of antibodies or fragments thereof, and/or T cell receptors or fragments thereof, as they show sufficient avidity to the MHC molecules and prevent dissociation of the MHC complexes.

CD8+ T cells = assay: In vitro T-cell priming assay (immunogenicity): repeated stimulation of CD8+ T cells with aAPCs loaded with peptide/MHC complexes and anti-CD28, pMHC multimer readout; format: cell-based, human; conditions: Table 10a; healthy donors; three stimulation cycles; HLA-A*02 (278), HLA-A*24 (279)
Experimental: In order to obtain information regarding the immunogenicity of the TUMAPs of the present invention, the inventors performed investigations using an in vitro T-cell priming assay based on repeated stimulations of CD8+ T cells with artificial antigen presenting cells (aAPCs) loaded with peptide/MHC complexes and anti-CD28 antibody. […]
Generation of pMHC/anti-CD28 coated beads, T-cell stimulations and readout was performed in a highly defined in vitro system using four different pMHC molecules per stimulation condition and 8 different pMHC molecules per readout condition. […]
Stimulations were initiated in 96-well plates by co-incubating […] CD8+ T cells with 2×10^5 washed coated beads in 200 μl TCM supplemented with 5 ng/ml IL-12 (PromoCell) for 3 days at 37° C. […] For the pMHC multimer readout using 8 different pMHC molecules per condition, a two-dimensional combinatorial coding approach was used as previously described (Andersen et al., 2012) with minor modifications encompassing coupling to 5 different fluorochromes. […] Peptide specific cells were calculated as percentage of total CD8+ cells. […] In vitro priming of specific multimer+CD8+ lymphocytes was detected by comparing to negative control stimulations.

Peptide exchange (HLA-A*24:02)	Substance	Wells positive [%] (CD8+ T cells)
“+++” (>50 = +++)	222 (RYLDEINLL; listed as Homo sapiens) [compound 222]	–
–	278 (YLDRKLLTL; listed as Homo sapiens) [compound 278]	++++ (>=70% = ++++)
–	279 (LYIDRPLPYL; listed as Homo sapiens) [compound 279]	++++ (>=70% = ++++)

— patent publication US11135246B2, “Peptides and combination of peptides for use in immunotherapy against leukemias and other cancers” (Immatics Biotechnologies GmbH, priority 2017, dated 2021)
